Source: PubChem BioAssay AID330 (DTP/NCI, 2004)
Several values for one entry are separate records, joined by “and”; a condition that tells them apart may be missing. Identical values can stand only once. Toxic doses and inconclusive results are not listed. The calls were made as follows: active = survival T/C of 150% or more; inactive = T/C below 125% in these data.

Tested on: P388 leukemia ip, CD2F1 mice, survival T/C
Test: NCI In Vivo Anticancer Drug Screen. Data for tumor model P388 Leukemia (intraperitoneal) in CD2F1 (CDF1) mice
Conditions: endpoint: median survival time, higher = longer survival
Procedure, shortened: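 Mice carrying the transplanted tumor received test compound or vehicle. Survival was recorded in each group, and the value is the treated-group measurement divided by that of the vehicle-treated control group.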

[1] = dose: 50.0 mg/kg/injection, schedule: Q01DX009 (ip), vehicle: saline
[2] = dose: 6.25 mg/kg/injection, schedule: Q01DX005 (ip), vehicle: Klucel (hydroxypropylcellulose) (HPC)
[3] = dose: 12.5 mg/kg/injection, schedule: Q01DX005 (ip), vehicle: Klucel (hydroxypropylcellulose) (HPC)
[4] = dose: 50.0 mg/kg/injection, schedule: Q01DX005 (ip), vehicle: Klucel (hydroxypropylcellulose) (HPC)
[5] = dose: 60.0 mg/kg/injection, schedule: Q01DX005 (ip), vehicle: saline with Tween-80
[6] = dose: 120.0 mg/kg/injection, schedule: Q01DX005 (ip), vehicle: saline with Tween-80
[7] = dose: 100.0 mg/kg/injection, schedule: Q04DX003 (ip), vehicle: saline
[8] = dose: 200.0 mg/kg/injection, schedule: Q04DX003 (ip), vehicle: saline
[9] = dose: 240.0 mg/kg/injection, schedule: Q01DX005 (ip), vehicle: saline with Tween-80
[10] = dose: 100.0 mg/kg/injection, schedule: Q01DX005 (ip), vehicle: Klucel (hydroxypropylcellulose) (HPC)
[11] = dose: 200.0 mg/kg/injection, schedule: Q01DX005 (ip), vehicle: Klucel (hydroxypropylcellulose) (HPC)
[12] = dose: 50.0 mg/kg/injection, schedule: Q01DX009 (ip), vehicle: saline with Tween-80
[13] = dose: 100.0 mg/kg/injection, schedule: Q01DX009 (ip), vehicle: saline with Tween-80
[14] = dose: 200.0 mg/kg/injection, schedule: Q01DX009 (ip), vehicle: saline with Tween-80
[15] = dose: 50.0 mg/kg/injection, schedule: Q01DX005 (ip), vehicle: saline with Tween-80
[16] = dose: 100.0 mg/kg/injection, schedule: Q01DX005 (ip), vehicle: saline with Tween-80
[17] = dose: 12.5 mg/kg/injection, schedule: Q01DX005 (ip), vehicle: saline with Tween-80
[18] = dose: 25.0 mg/kg/injection, schedule: Q01DX005 (ip), vehicle: saline with Tween-80
[19] = dose: 25.0 mg/kg/injection, schedule: Q01DX009 (ip), vehicle: saline

Measured: T/C

C=C(C)C(=NC(C)(C)C)Nc1cccc(Cl)c1
inactive: [1] 100 % of control | dose: 100.0 mg/kg/injection, schedule: Q01DX009 (ip), vehicle: saline 104 % of control | dose: 200.0 mg/kg/injection, schedule: Q01DX009 (ip), vehicle: saline 100 % of control

C=CCn1c(COc2c(I)cc(I)c3cccnc23)n[nH]c1=S
inactive: [2] 100 % of control and 96 % of control | [3] 108 % of control and 115 % of control | dose: 25.0 mg/kg/injection, schedule: Q01DX005 (ip), vehicle: Klucel (hydroxypropylcellulose) (HPC) 106 % of control | [4] 114 % of control

O=C(Cc1n[nH]c(=S)nc1CC(=O)c1cccnc1)c1cccnc1
inactive: [5] 100 % of control | [6] 96 % of control

COc1cc2c(cc1O)CC1c3c(cc(OC)c(O)c3C2)CCN1C (stereo unspecified)
inactive: dose: 12.5 mg/kg/injection, schedule: Q01DX001 (ip), vehicle: saline with Tween-80 100 % of control | dose: 25.0 mg/kg/injection, schedule: Q01DX001 (ip), vehicle: saline with Tween-80 96 % of control | dose: 50.0 mg/kg/injection, schedule: Q01DX001 (ip), vehicle: saline with Tween-80 97 % of control | dose: 100.0 mg/kg/injection, schedule: Q01DX001 (ip), vehicle: saline with Tween-80 95 % of control

O=C(O)CNCc1ccc(F)cc1
inactive: [7] 98 % of control | [8] 103 % of control | dose: 400.0 mg/kg/injection, schedule: Q04DX003 (ip), vehicle: saline 102 % of control | dose: 600.0 mg/kg/injection, schedule: Q04DX003 (ip), vehicle: saline 100 % of control

CCc1ccccc1NC(=O)C(=O)CC(=O)CS(=O)(=O)c1ccc(C)cc1
inactive: [5] 103 % of control | [6] 100 % of control | [9] 103 % of control

COc1ccc(/C=N/Nc2cc(C)nc3cc4c(cc23)OCO4)c2ccccc12
inactive: dose: 1.56 mg/kg/injection, schedule: Q01DX005 (ip), vehicle: Klucel (hydroxypropylcellulose) (HPC) 109 % of control | dose: 3.12 mg/kg/injection, schedule: Q01DX005 (ip), vehicle: Klucel (hydroxypropylcellulose) (HPC) 100 % of control | [2] 100 % of control and 102 % of control | [3] 110 % of control

CCCCNC1=CC(=O)C(NCCCC)=CC1=O
inactive: [4] 100 % of control | [10] 101 % of control | [11] 98 % of control

COc1ccc(C(=O)C2Cc3c(ccc4ccccc34)OC2=O)cc1 (stereo unspecified)
inactive: [12] 95 % of control | [13] 91 % of control | [14] 88 % of control

COc1cc2c(c(OC)c1OC)-c1cc3c(cc1C(OC1OC(CO)C(O)C(O)C1O)C1COC(=O)C1C2)OCO3 (stereo unspecified)
inactive: dose: 15.38 mg/kg/injection, schedule: Q01DX005 (ip), vehicle: Klucel (hydroxypropylcellulose) (HPC) 108 % of control | dose: 30.75 mg/kg/injection, schedule: Q01DX005 (ip), vehicle: Klucel (hydroxypropylcellulose) (HPC) 100 % of control | dose: 61.5 mg/kg/injection, schedule: Q01DX005 (ip), vehicle: Klucel (hydroxypropylcellulose) (HPC) 113 % of control | dose: 123.0 mg/kg/injection, schedule: Q01DX005 (ip), vehicle: Klucel (hydroxypropylcellulose) (HPC) 121 % of control

O=C1CCC(N2CCCCC2)CCC1(c1ccccc1)c1ccccc1 (stereo unspecified)
inactive: [15] 106 % of control | [16] 103 % of control | dose: 200.0 mg/kg/injection, schedule: Q01DX005 (ip), vehicle: saline with Tween-80 96 % of control

Nc1nc(Cl)c2ncn(C3OC(CO)C(O)C3O)c2n1 (stereo unspecified)
inactive: [14] 98 % of control | dose: 400.0 mg/kg/injection, schedule: Q01DX009 (ip), vehicle: saline with Tween-80 100 % of control

O=C(Cc1nc(-c2ccc(Cl)cc2)no1)c1ccccc1
inactive: [12] 91 % of control | [13] 87 % of control

CCOC(=O)N1C=CC(C2C=CN(C(=O)OCC)C=C2)C=C1
inactive: dose: 10.0 mg/kg/injection, schedule: Q01DX009 (ip), vehicle: saline with Tween-80 111 % of control | dose: 20.0 mg/kg/injection, schedule: Q01DX009 (ip), vehicle: saline with Tween-80 96 % of control | dose: 40.0 mg/kg/injection, schedule: Q01DX009 (ip), vehicle: saline with Tween-80 105 % of control

CC1=CC(C)(C(Cl)(Cl)Cl)C(C)=CC1=O (stereo unspecified)
inactive: [4] 98 % of control | [10] 99 % of control | [11] 101 % of control

CC(=O)Nc1ccc(C(=O)c2ccccc2)cc1
inactive: dose: 25.0 mg/kg/injection, schedule: Q04DX003 (ip), vehicle: saline 102 % of control | dose: 50.0 mg/kg/injection, schedule: Q04DX003 (ip), vehicle: saline 103 % of control | [7] 100 % of control | [8] 103 % of control

O=C(NC(Cc1ccccc1)C(=O)O)C(=O)c1c[nH]c2ccc(Cl)cc12 (stereo unspecified)
inactive: [5] 100 % of control | [6] 96 % of control | [9] 94 % of control

CCN(CC)CCOc1ccc(C)c(C)c1
inactive: [15] 106 % of control | [16] 103 % of control

CCOC(=O)CCc1[nH]c(=S)ncc1C(=O)OCC
inactive: dose: 7.5 mg/kg/injection, schedule: Q01DX009 (ip), vehicle: saline with Tween-80 96 % of control | dose: 15.0 mg/kg/injection, schedule: Q01DX009 (ip), vehicle: saline with Tween-80 101 % of control | dose: 30.0 mg/kg/injection, schedule: Q01DX009 (ip), vehicle: saline with Tween-80 104 % of control

COc1cc2c(c(OC)c1OC)-c1ccc(SC)c(=O)cc1[C@@H](NC(=O)CCl)CC2
inactive: dose: 0.03 mg/kg/injection, schedule: Q01DX009 (ip), vehicle: water 124 % of control
active: dose: 0.4 mg/kg/injection, schedule: Q01DX009 (ip), vehicle: water 155 % of control

O=C1OC(OC2OC(=O)C(Cl)=C2Cl)C(Cl)=C1Cl (stereo unspecified)
inactive: [17] 104 % of control and 109 % of control | [18] 116 % of control and 117 % of control

CCc1ccc2c(-c3ccccc3)c3c(-c4ccccc4)c4ccccc4c(-c4ccccc4)c3c(-c3ccccc3)c2c1
inactive: [17] 99 % of control | [18] 91 % of control | [15] 98 % of control and 88 % of control

COc1ccc(NCCOc2ccccc2Br)cc1
inactive: dose: 100.0 mg/kg/injection, schedule: Q04DX003 (ip), vehicle: other 90 % of control | dose: 132.0 mg/kg/injection, schedule: Q01DX009 (ip), vehicle: other 123 % of control | dose: 200.0 mg/kg/injection, schedule: Q01DX009 (ip), vehicle: other 104 % of control | dose: 200.0 mg/kg/injection, schedule: Q04DX003 (ip), vehicle: other 90 % of control | dose: 300.0 mg/kg/injection, schedule: Q01DX009 (ip), vehicle: other 100 % of control | dose: 400.0 mg/kg/injection, schedule: Q04DX003 (ip), vehicle: other 95 % of control

CNc1c(C(N)=O)nnn1Cc1ccc(OC)cc1
inactive: dose: 100.0 mg/kg/injection, schedule: Q04DX002 (ip), vehicle: Klucel (hydroxypropylcellulose) (HPC) 100 % of control | dose: 200.0 mg/kg/injection, schedule: Q04DX002 (ip), vehicle: Klucel (hydroxypropylcellulose) (HPC) 100 % of control | dose: 400.0 mg/kg/injection, schedule: Q04DX002 (ip), vehicle: Klucel (hydroxypropylcellulose) (HPC) 103 % of control

OCCSCc1cnc2ccccn12
inactive: [19] 105 % of control | [1] 100 % of control

CCC1CN1P(=O)(OCCC#N)N1CC1CC (stereo unspecified)
inactive: dose: 12.5 mg/kg/injection, schedule: Q01DX009 (ip), vehicle: saline 100 % of control | [19] 104 % of control | [1] 109 % of control | dose: 100.0 mg/kg/injection, schedule: Q04DX003 (ip), vehicle: saline with Tween-80 104 % of control | dose: 200.0 mg/kg/injection, schedule: Q04DX003 (ip), vehicle: saline with Tween-80 100 % of control | dose: 400.0 mg/kg/injection, schedule: Q04DX003 (ip), vehicle: saline with Tween-80 104 % of control

CCCC(=O)c1ccco1
inactive: dose: 6.25 mg/kg/injection, schedule: Q01DX009 (ip), vehicle: saline with Tween-80 88 % of control | dose: 12.5 mg/kg/injection, schedule: Q01DX009 (ip), vehicle: saline with Tween-80 95 % of control | dose: 25.0 mg/kg/injection, schedule: Q01DX009 (ip), vehicle: saline with Tween-80 95 % of control
